Where two headings read alike, the source gives them in different places.
How the values were obtained:
human TRPM8 = molecular target: T1, human TRPM8 (Homo sapiens, UniProt Q7Z2W7); test: Ca2+ influx assay for TRP channel agonistic activity in T-REx-293 cells; type: cell-based; conditions: 10 µmol/L test ingredient, positive control 20 µmol/L icilin, read-out: % Activation compared to positive control, TRPM8
T1 construct: The full length of each of human transient receptor potential ankyrin 1 (TRPA1); expressed in transfected cells
Text: (§1) The full length of each of human transient receptor potential ankyrin 1 (TRPA1), transient receptor potential cation channel subfamily V member 1 (TRPV1), transient receptor potential cation channel subfamily V member 4 (TRPV4), and transient receptor potential cation channel subfamily M member 8 (TRPM8) coding region was introduced into a pcDNA4/TO vector (Thermo Fisher Scientific, Waltham, MA, USA) and transfected into T-REx-293 cells (Thermo Fisher Scientific) to obtain stable cell lines expressing human TRPA1, TRPV1, TRPV4, and TRPM8. Next, the cells were cultured in Dulbecco’s Modified Eagle Medium containing 10% fetal bovine serum (FBS), 4 mM L-glutamine, and penicillin/streptomycin.
(§2) First, cells were suspended in culture medium with 1 µg/mL of tetracycline and seeded on a poly-D-lysine-coated 96-well plate at a density of 2.5 × 10^4 cells/well overnight. Next, the cells were used for Ca^2+ influx assay, as described previously with minor modifications, using a FLIPR Calcium 5 Assay Kit (Molecular Devices, San Jose, CA, USA). Briefly, cells were incubated in 80 µL of a Ca^2+-chelating dye dissolved in assay buffer at pH 7.4 (Hanks’ Balanced Salt Solution containing 20 mmol/L of 4-(2-hydroxyethyl)-1-piperazineethanesulfonic acid [HEPES]) for 30 min at room temperature. Next, the plates were assayed in a FlexStation 3 microplate reader (Molecular Devices). The fluorescence intensity was traced entirely for 80 s, and the fluorescence baseline was measured 20 s before application of 20 µL of the test compound (final concentration = 10 µmol/L). The response was expressed as percentage activation as follows:
(§3) Relative fluorescence units (RFU) (% activation) = ([RFUmax − RFUbaseline]/RFUbaseline) × 100
(§4) The activity of each test compound against TRPA1, TRPV1, TRPV4, and TRPM8 was represented as the relative enhancement of the Ca^2+ influx of each positive control as follows: 20 µmol/L of allyl isothiocyanate (TRPA1 agonist), 2 µmol/L of capsaicin (TRPV1 agonist), 4 µmol/L of GSK1016790A (TRPV4 agonist), and 20 µmol/L of icilin (TRPM8 agonist). The dose–response curve was fitted to the sigmoidal dose–response equation (Top: maximum response of each compound), and EC50 was calculated using GraphPad prism 7 software (GraphPad, San Diego, CA, USA).
(§5) Calcium ion influx into TRPA1-, TRPV1-, TRPV4-, or TRPM8-expressing T-REx-293 cells was measured to evaluate the agonistic effect of shimotsuto ingredients on TRP channels. The action of 10 µmol/L of each test ingredient was represented as the relative enhancement of the Ca^2+ influx of each positive control, indicated as follows: 20 µmol/L each of allyl isothiocyanate (TRPA1 agonist), 2 µmol/L capsaicin (TRPV1 agonist), 4 µmol/L GSK1016790A (TRPV4 agonist), and 20 µmol/L icilin (TRPM8 agonist). Dose–response tests of shimotsuto ingredients against TRPA1 were performed to calculate EC50.

human TRPA1 = molecular target: T2, human TRPA1 (Homo sapiens, UniProt O75762); test: as above; type: cell-based; conditions: for activation at 10 µM: T-REx-293, 10 µmol/L test ingredient, positive control 20 µmol/L allyl isothiocyanate, read-out: % Activation compared to positive control, TRPA1
T2 construct: The full length of each of human transient receptor potential ankyrin 1 (TRPA1); expressed in transfected cells
Text: as §1, §2, §3, §4, §5

human TRPV4 = molecular target: T3, human TRPV4 (Homo sapiens, UniProt Q9HBA0); test: as above; type: cell-based; conditions: 10 µmol/L test ingredient, positive control 4 µmol/L GSK1016790A, read-out: % Activation compared to positive control, TRPV4
T3 construct: The full length of each of human transient receptor potential ankyrin 1 (TRPA1); expressed in transfected cells
Text: as §1, §2, §3, §4, §5

human TRPV1 = molecular target: T4, human TRPV1 (Homo sapiens, UniProt Q8NER1); test: as above; type: cell-based; conditions: 10 µmol/L test ingredient, positive control 2 µmol/L capsaicin, read-out: % Activation compared to positive control, TRPV1
T4 construct: The full length of each of human transient receptor potential ankyrin 1 (TRPA1), transient receptor potential cation channel subfamily V member 1 (TRPV1); expressed in transfected cells
Text: as §1, §2, §3, §4, §5

[1] = cited from earlier work
[2] = test system: transient receptor potential ankyrin 1 (TRPA1); parameters: method as in PMID 21894528; conditions: ref 15; cited from earlier work
[3] = Pharmacokinetics of ingredients in rat plasma after oral administration of shimotsuto (targeted LC–MS/MS); type: in vivo
Text: The plasma levels of nine ingredients were quantified using quantitative (targeted) analysis. Among them, seven ingredients (catalpol, paeoniflorin, albiflorin, senkyunolide A, butylphthalide, ferulic acid, and ligustilide) are candidate active ingredients in shimotsuto (Table 1). Two ingredients (bergapten and 8-debenzoylpaeoniflorin) are shimotsuto ingredients which were detected and identified in shimotsuto-treated rat plasma using nontargeted LC–HRMS analysis. The nine ingredients were quantified by collecting plasma samples at 0–24 h after shimotsuto administration, pretreating with the following procedures, and then analyzing by targeted LC–MS/MS using selected reaction-monitoring mode. The LC–MS/MS system was composed of a triple quadruple MS (TripleQuad6500; SCIEX, Framingham, MA, USA) and an Agilent 1290 Infinity LC system (Agilent Technologies, Santa Clara, CA, USA). For highly sensitive and selective quantitative (targeted) analysis of each compound, we preliminarily examined optimal pretreatment and analytical LC–MS/MS methods (e.g., MS parameters and LC conditions).
For quantification of catalpol, paeoniflorin, albiflorin, ferulic acid, and senkyunolide A in plasma, 100 µL of plasma sample was mixed with 20 µL of methanol (or working solution) and 20 µL of internal standard (niflumic acid or swertiamarin) and pretreated by deproteinization using 500 µL of acetonitrile. […] Finally, the dried residue was dissolved in 60 µL of the specific HPLC mobile phase used for analysis and then a 10 μL aliquot was injected into the LC–MS/MS system.
For quantification of ligustilide and butylphthalide in plasma, 200 µL of plasma sample was mixed with 40 µL of methanol (or working solution) and 40 µL of internal standard (imperatorin) and centrifuged at 15000×g for 10 min at 4 °C, the whole volume of supernatant was collected and subsequently pretreated by solid-phase extraction using Oasis HLB Extraction Cartridge (Waters, Milford, MA, USA). The acetonitrile elutes were collected and then dried under a steam of nitrogen gas. Finally, the dried residue was dissolved in 70 µL of the specific HPLC mobile phase and injected 20 µL into the LC–MS/MS system.
For quantification of bergapten in plasma, 100 µL of plasma sample was mixed with 20 µL of methanol (or working solution) and 20 µL of internal standard (niflumic acid) and pretreated by solid-phase extraction using an Oasis HLB 96-well µElution plate. Next, the mixied elutes of acetonitrile and isopropyl alcohol (1:1, v/v) were collected and then dried under a steam of nitrogen gas. Finally, the dried residue was dissolved in 60 µL of the specific HPLC mobile phase and injected 10 µL into the LC–MS/MS system.
For quantification of 8-debenzoylpaeoniflorin in plasma, 100 µL of plasma sample was mixed with 20 µL of methanol (or working solution) and 20 µL of internal standard (niflumic acid) and pretreated by liquid–liquid extraction using 500 µL of ethyl acetate. […] The dried residue was dissolved in 60 µL of the specific HPLC mobile phase and injected 10 µL into the LC–MS/MS system.
In addition, pharmacokinetic parameters of the shimotsuto ingredients detected in the plasma, such as the maximum concentration (Cmax) and area under the plasma level–time curve (AUC0−last), were calculated by noncompartmental moment analysis using Phoenix WinNonlin software (Certara L.P., St. Louis, MO, USA).

[4] = Plasma levels of catalpol in humans after goshajinkigan administration (unpublished data); type: in vivo, human; conditions: after goshajinkigan (including Rehmanniae Radix) administration
[5] = parameters: method as in PMID 31514313; conditions: ref 18; cited from earlier work
blood viscosity = test system: blood viscosity; parameters: method as in PMID 28299338; conditions: rat model; cited from earlier work
[6] = parameters: method as in PMID 8932691; conditions: cited from earlier work

T1 sequence (Q7Z2W7 whole entry): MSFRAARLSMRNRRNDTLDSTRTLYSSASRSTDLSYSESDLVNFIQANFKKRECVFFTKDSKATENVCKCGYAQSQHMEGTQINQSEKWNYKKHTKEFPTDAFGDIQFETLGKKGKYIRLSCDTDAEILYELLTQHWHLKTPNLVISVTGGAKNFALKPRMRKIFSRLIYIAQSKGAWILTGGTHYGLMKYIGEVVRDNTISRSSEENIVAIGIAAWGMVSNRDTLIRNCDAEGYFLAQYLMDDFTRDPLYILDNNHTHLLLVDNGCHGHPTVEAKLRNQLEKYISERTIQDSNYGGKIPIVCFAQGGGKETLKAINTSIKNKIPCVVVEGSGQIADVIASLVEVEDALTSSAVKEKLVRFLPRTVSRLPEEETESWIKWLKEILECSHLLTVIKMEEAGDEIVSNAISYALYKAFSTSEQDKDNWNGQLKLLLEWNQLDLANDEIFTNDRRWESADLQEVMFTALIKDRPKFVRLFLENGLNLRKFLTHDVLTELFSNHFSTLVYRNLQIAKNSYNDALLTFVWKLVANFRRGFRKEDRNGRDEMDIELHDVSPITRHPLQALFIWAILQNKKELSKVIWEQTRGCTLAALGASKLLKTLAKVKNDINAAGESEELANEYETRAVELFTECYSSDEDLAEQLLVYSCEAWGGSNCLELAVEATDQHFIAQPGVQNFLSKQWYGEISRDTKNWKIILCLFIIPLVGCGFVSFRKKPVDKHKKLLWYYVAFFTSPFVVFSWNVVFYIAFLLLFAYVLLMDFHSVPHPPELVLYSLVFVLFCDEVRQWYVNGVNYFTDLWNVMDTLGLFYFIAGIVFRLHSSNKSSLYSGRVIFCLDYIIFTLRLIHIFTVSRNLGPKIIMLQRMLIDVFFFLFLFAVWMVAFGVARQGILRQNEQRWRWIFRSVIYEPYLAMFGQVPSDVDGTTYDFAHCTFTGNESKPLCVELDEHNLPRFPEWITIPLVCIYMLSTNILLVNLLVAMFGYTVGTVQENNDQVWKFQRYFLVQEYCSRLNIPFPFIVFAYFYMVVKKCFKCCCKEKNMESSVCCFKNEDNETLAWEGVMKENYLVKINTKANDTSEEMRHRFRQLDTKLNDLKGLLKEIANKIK
T2 sequence (O75762 whole entry): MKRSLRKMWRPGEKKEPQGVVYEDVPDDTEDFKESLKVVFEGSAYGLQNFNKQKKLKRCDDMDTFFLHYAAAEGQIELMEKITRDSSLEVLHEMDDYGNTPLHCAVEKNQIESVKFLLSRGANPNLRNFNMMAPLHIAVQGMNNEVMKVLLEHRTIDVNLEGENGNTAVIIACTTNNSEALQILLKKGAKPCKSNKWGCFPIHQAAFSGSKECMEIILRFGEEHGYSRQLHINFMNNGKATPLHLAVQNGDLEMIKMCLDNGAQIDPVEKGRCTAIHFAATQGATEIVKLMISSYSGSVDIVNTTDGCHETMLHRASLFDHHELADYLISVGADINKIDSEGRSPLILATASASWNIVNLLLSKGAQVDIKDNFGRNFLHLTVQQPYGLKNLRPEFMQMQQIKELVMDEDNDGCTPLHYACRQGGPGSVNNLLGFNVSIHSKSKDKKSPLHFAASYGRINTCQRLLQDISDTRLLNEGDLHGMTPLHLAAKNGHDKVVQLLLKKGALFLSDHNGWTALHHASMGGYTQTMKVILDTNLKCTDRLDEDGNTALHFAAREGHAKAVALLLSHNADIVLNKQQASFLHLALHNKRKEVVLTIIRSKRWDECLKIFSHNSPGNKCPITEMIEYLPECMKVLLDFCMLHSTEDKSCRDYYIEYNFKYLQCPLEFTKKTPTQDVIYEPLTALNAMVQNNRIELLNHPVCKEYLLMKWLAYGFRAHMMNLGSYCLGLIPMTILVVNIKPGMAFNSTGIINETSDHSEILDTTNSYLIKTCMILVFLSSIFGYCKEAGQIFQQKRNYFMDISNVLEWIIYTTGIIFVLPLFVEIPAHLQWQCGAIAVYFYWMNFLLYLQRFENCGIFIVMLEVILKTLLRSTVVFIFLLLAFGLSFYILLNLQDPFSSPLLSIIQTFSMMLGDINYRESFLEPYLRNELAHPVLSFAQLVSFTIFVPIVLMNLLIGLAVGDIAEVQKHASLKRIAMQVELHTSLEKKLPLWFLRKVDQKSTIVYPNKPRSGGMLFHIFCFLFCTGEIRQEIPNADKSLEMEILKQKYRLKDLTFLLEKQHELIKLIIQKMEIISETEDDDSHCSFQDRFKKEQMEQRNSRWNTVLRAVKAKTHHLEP
T3 sequence (Q9HBA0 whole entry): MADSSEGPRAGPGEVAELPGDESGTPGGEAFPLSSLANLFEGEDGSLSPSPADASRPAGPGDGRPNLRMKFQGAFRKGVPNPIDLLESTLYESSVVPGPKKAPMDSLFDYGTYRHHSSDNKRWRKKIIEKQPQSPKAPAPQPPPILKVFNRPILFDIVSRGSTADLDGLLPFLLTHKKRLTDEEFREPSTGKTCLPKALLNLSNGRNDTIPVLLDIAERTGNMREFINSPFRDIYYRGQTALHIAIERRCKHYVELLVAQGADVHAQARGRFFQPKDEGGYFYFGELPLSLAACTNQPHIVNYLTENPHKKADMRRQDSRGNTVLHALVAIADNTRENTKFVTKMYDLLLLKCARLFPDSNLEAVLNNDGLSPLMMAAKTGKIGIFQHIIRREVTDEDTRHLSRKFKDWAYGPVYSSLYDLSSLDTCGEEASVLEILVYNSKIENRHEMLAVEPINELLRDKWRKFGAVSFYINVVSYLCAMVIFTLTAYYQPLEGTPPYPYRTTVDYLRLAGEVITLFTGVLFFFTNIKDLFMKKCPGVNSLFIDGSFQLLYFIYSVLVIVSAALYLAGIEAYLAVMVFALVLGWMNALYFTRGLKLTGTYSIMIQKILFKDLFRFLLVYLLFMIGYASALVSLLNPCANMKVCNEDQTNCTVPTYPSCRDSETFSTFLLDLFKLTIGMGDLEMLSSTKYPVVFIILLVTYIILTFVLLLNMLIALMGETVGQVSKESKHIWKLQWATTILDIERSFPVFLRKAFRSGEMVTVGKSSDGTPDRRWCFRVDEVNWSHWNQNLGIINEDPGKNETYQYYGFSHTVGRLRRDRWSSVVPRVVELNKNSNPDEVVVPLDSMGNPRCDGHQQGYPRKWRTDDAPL
T4 sequence (Q8NER1 whole entry): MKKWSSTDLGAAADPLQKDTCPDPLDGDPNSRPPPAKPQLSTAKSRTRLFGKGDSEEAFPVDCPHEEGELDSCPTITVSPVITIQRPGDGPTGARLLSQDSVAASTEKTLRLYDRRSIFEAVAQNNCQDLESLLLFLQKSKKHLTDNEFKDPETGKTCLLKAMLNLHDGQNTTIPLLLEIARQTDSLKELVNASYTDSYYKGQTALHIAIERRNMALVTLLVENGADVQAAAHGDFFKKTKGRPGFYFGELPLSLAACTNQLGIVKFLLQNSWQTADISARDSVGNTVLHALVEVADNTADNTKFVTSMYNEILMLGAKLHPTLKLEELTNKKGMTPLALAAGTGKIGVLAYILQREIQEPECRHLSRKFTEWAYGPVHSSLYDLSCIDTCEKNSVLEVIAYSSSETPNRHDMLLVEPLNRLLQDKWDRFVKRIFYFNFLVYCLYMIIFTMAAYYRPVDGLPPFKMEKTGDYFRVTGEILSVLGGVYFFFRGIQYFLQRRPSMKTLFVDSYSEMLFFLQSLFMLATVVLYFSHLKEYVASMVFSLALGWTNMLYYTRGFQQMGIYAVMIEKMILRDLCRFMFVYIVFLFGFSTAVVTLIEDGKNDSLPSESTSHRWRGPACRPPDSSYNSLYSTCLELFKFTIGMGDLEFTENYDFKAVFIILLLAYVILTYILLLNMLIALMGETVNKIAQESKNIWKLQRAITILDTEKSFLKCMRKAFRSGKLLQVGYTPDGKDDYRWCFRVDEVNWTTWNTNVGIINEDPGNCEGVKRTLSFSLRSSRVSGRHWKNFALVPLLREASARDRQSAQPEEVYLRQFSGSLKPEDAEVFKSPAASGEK

CCC/C=C1\OC(=O)C2=C1CCC=C2 [Ligustilide]
activation at 10 µM (human TRPM8): 18%
activation at 10 µM (human TRPA1): 87%
Activation of TRPA1 (in words) (human TRPA1; TRP stable expression cell lines): potently activated
EC50 (human TRPA1; dose–response test, Ca2+ influx, read-out: EC50 against TRPA1): 1300 nM
activation at 10 µM (human TRPV4): -1%
activation at 10 µM (human TRPV1): 0%
Pharmacological action related to improvement of blood and the circulatory system ([1]; ref 8): vasorelaxation
Pharmacological action related to improvement of blood and the circulatory system ([1]; ref 13): vasorelaxation and increased blood flow effects
Pharmacological action related to improvement of blood and the circulatory system [2]: Activation of transient receptor potential ankyrin 1 (TRPA1; which plays a role in vasodilation)
AUC(0-t) ([3]; rat, in vivo, po, 1 g/kg): 0.916 ng·h/mL
Cmax ([3]; rat, in vivo, po, 1 g/kg): 2.83 ng/mL
Tmax ([3]; rat, in vivo, po, 1 g/kg): 30 min

OC[C@H]1O[C@@H](O[C@@H]2OC=C[C@H]3[C@H](O)[C@@H]4O[C@]4(CO)[C@@H]23)[C@H](O)[C@@H](O)[C@@H]1O [Catalpol]
Plasma levels in humans [4]: quite low
activation at 10 µM (human TRPM8): 3%
activation at 10 µM (human TRPA1): 2%
activation at 10 µM (human TRPV4): 0%
activation at 10 µM (human TRPV1): 0%
Pharmacological action related to improvement of blood and the circulatory system ([1]; ref 11): Protective effect on vascular endothelial function via multiple actions such as induction of serum nitric oxide [11]
Absolute bioavailability [5]: 66.7%
AUC(0-t) ([3]; rat, in vivo, po, 1 g/kg): 2030 ng·h/mL
Cmax ([3]; rat, in vivo, po, 1 g/kg): 1360 ng/mL
Tmax ([3]; rat, in vivo, po, 1 g/kg): 60 min
half-life ([3]; rat, in vivo, po, 1 g/kg): 38.6 min

CC12CC(O)C3CC1(OC1OC(CO)C(O)C(O)C1O)C3(COC(=O)c1ccccc1)C(=O)O2 (stereo not shown) [Albiflorin]
Pharmacological action related to improvement of blood and the circulatory system (blood viscosity): Reduction of blood viscosity via antithrombotic effect in rat model [12]
activation at 10 µM (human TRPM8): 1%
activation at 10 µM (human TRPA1): 1%
activation at 10 µM (human TRPV4): -1%
activation at 10 µM (human TRPV1): 0%
AUC(0-t) ([3]; rat, in vivo, po, 1 g/kg): 24.2 ng·h/mL
Cmax ([3]; rat, in vivo, po, 1 g/kg): 6.34 ng/mL
Tmax ([3]; rat, in vivo, po, 1 g/kg): 30 min
half-life ([3]; rat, in vivo, po, 1 g/kg): 163 min

C[C@@]12C[C@@]3(O)O[C@@H](O1)[C@]1(COC(=O)c4ccccc4)[C@H]3C[C@@]12O[C@@H]1O[C@H](CO)[C@@H](O)[C@H](O)[C@H]1O [Paeoniflorin]
Cumulative biliary excretion ([6]; after oral administration of paeoniflorin, within 24 h): 1.3 % of the dose
Bioavailability ([6]; in rats): low
Pharmacological action related to improvement of blood and the circulatory system (blood viscosity): Reduction of blood viscosity via antithrombotic effect in rat model [12]
activation at 10 µM (human TRPM8): 0%
activation at 10 µM (human TRPA1): 1%
activation at 10 µM (human TRPV4): 0%
activation at 10 µM (human TRPV1): -1%
Tmax ([3]; rat plasma, oral shimotsuto 1 g/kg, from mean concentration (n = 3) per time point): 30 min
AUC(0-t) ([3]; rat, in vivo, po, 1 g/kg): 83.6 ng·h/mL
Cmax ([3]; rat, in vivo, po, 1 g/kg): 36.3 ng/mL
half-life ([3]; rat, in vivo, po, 1 g/kg): 88.8 min
